Experimental data taken from patent US20100029755A1, “P-Glycoprotein inhibitor comprising octilonium bromide as an effective ingredient” (priority 2002, published 2010).
Read-outs that look alike come from different tables or passages of the source.

Legend:
p-glycoprotein [1] = conditions: SD, rat, 1 h, pH 6.4
[2] = administered orally; cited from earlier work
p-glycoprotein [3] = conditions: SD, rat, 1 h, 10 μg/ml, pH 6.4

Row | Compound | absorbed amount of the doxorubicin (p-glycoprotein [1]; 50 μg/ml) [μg/g tissue] | absorbed doxorubicin as % of the total applied amount (p-glycoprotein [1]; 50 μg/ml) [%] | absorbed amount of the doxorubicin (p-glycoprotein [1]; 200 μg/ml) [μg/g tissue] | absorbed doxorubicin as % of the total applied amount (p-glycoprotein [1]; 200 μg/ml) [%] | increase of the amount of absorbed doxorubicin by octylonium bromide (p-glycoprotein [1]; 200 μg/ml) [folds] | fraction of octylonium bromide absorbed systemically [2] [%] | fraction of octylonium bromide remaining in the gastrointestinal tract [2] [%] | absorbed rhodamine 123 as % of the total applied amount (p-glycoprotein [3]) [%] | amount of the absorbed rhodamine 123 (p-glycoprotein [3]) [μg/g tissue] | increase of the amount of absorbed rhodamine by octylonium bromide (p-glycoprotein [3]) [folds]
1 | COc1cccc2c1C(=O)c1c(O)c3c(c(O)c1C2=O)C[C@@](O)(C(=O)CO)C[C@@H]3O[C@H]1C[C@H](N)[C@H](O)[C@H](C)O1 [doxorubicin] | 0.4 | 0.12 | – | – | – | – | – | – | – | –
2 | CCCCCCCCOc1ccccc1C(=O)Nc1ccc(C(=O)OCC[N+](C)(CC)CC)cc1 [octylonium bromide] | – | – | 11 | 3.3 | 28 | 5 | 95 | 14.5 | 4.3 | 4.5
